Experiment [1] deals with EJ-1 human bladder carcinoma, HT1080 human fibrosarcoma and human colon carcinoma xenografts. Particulars: 100 mg/kg, nude mice; cited from earlier work.
In experiment [2] the target is T1, SF9 affinity purified rat farnesyl protein transferase (Rattus norvegicus, UniProt Q02293+Q04631).
T1 construct: made in house; host or cells: Sf9 insect cells (baculovirus system, inferred from b7)
In words: PFT inhibitory activity. The experiment is classed as biochemical. Here is the method: The protein:farnesyltransferase (PFT) or farnesyl protein transferase (FPT) inhibitory activity of compounds of the present invention were assayed in HEPES buffer (pH 7.4) containing 5 mM potassium phosphate and 20 μM ZnCl2. The solution also contained 5 mM DTT (dithiothreitol), 5 mM MgCl2 and 0.1% PEG 8000. Assays were performed in 96 well plates (Wallec) and employed solutions composed of varying concentrations of a compound of the present invention in 100% DMSO (dimethylsulfoxide). Upon addition of both substrates, radiolabeled farnesyl pyrophosphate ([1-^3 H], specific activity 15-30 Ci/mmol, final concentration 134 nM) and (biotinyl)-Ahe-Thr-Lys-Cys-Val-Ile-Met ([3aS[3a alpha, 4 beta, 6a alpha]-hexahydro-2-oxo-1H-thieno[3,4-d]imidazole-5-pentanoic acid]-[7-aminoheptanoic acid]-Thr-Lys-Cys-Val-Ile-Met) (Ahe is 7-aminoheptanoic acid, Thr is threonine, Lys is lysine, Cys is cysteine, Val is valine, Ile is isoleucine and Met is methionine) (final concentration 0.2 μM), the enzyme reaction was started by addition of SF9 affinity purified rat farnesyl protein transferase. After incubation at 30° C. for 30 minutes, the reaction was terminated by diluting the reaction 2.5-fold with a stop buffer containing 1.5 M magnesium acetate, 0.2 M H3 PO4, 0.5% BSA (bovine serum albumin), and strepavidin beads (Amersham) at a concentration of 1.3 mg/mL. After allowing the plate to settle for 30 minutes at room temperature, radioactivity was quantitated on a microBeta counter (Model 1450, Wallec). The assay was also carried out without 5 mM potassium phosphate.

Experiment [3] relates to ras farnesylation in ras-transformed cells. In words: Gel shift assay. The format is cell-based. Particulars: 18-hour incubation. Here is the method: Twenty-four hours after planting 2×10^6 ras-transformed cells per treatment condition, the farnesylation inhibitor is added at varying concentrations. Following an 18-hour incubation period, cells are lysed in phosphate-buffered saline containing 1% Triton X-100, 0.5% sodium deoxycholate, and 0.1% SDS (sodium dodecyl sulfate), pH 7.4 in the presence of several protease inhibitors (PMSF (phenylmethylsulfonylfluoride), antipain, leupeptin, pepstatin A, and aprotinin all at 1 μg/mL). Ras protein is immunoprecipitated from the supernatants by the addition of 3 μg v-H-ras Ab-2 (Y13-259 antibody from Oncogene Science). After overnight immunoprecipitation, 30 μL of a 50% protein G-Sepharose slurry (Pharmacia) is added followed by 45-minute incubation. Pellets are resuspended in 2× tris-glycine loading buffer (Novex) containing 5% β-mercaptoethanol and then denatured by 5 minutes boiling prior to electrophoresis on 14% Tris-glycine SDS gels. Using Western transfer techniques, proteins are transferred to nitrocellulose membranes followed by blocking in blocking buffer. Upon overnight incubation with primary antibody (pan-ras Ab-2 from Oncogene Science), an antimouse HRP (horse radish peroxidase) conjugate secondary antibody (Amersham) is employed for detection of the ras protein. Blots are developed using ECL(enhanced chemiluminescence) techniques (Amersham).

The subject of experiment [4] is H61 cells: NIH transformed 3T3 H-ras cells. In words: Clonogenic assay (6 well plates). The format is cell-based. As to conditions: H61 cells in soft agar, colonies counted after Day 13. The protocol:
Clonogenic Assay (6 well plates)
Sometime previous to setting up an actual test:
1. Make up 1.5% Bacto Agar in Milli-Q water and autoclave.
2. Make up 500 mL 2× DMEM-HG without phenol red by combining the following:
1 bottle DMEM base powder (Sigma D-5030)
Adjust pH to 7.1 with HCl; filter sterilize.
1. Set up makeshift water bath (beaker of water with thermometer, on hot plate) in the hood. Keep water temperature between 37° C. to 43° C.
2. […] 1.5% Bacto Agar for approximately 2 minutes on high, or until completely melted. Then let it cool somewhat before using it. (You can keep it from resolidifying by setting the bottle on the hot plate.) […]
Bottom Layer (0.6% agar) Top Layer (0.3% agar)
20% calf serum 20% calf serum
40% Bacto Agar (1.5%) 20% Bacto Agar (1.5%)
(H61 cells: NIH transformed
Depending on the volume of each layer needed, use either 50 mL conical tubes or 200 mL turnip tubes which can be floated in the "water bath".
4. Add 1 mL of bottom layer agar/medium to each well: deliver 1 mL warm agar/medium to a well; then using the tip of the pipet, spread the agar/medium around to completely cover the bottom. Repeat with next well.
5. Allow the plates to set at room temperature for about 5 minutes until the bottom layer solidifies.
6. Label sterile Falcon 2054 (12×75 mm) tubes and add appropriate volume of drug solutions into them.
7. Aliquot 4 μL of DMSO or drug solution per 1 mL of agar/medium to appropriate tubes; then add the agar/medium/cells to each tube. Always add 1 mL more than will actually be needed. Mix up and down in the pipet (gently); then deliver 1 mL to the center of each well. The upper layer is less viscous, so it will generally spread out over the bottom layer unaided. If necessary, rotate the plane of the plate gently to spread the top layer evenly over the bottom layer.
8. Let plates set for 5 or 10 minutes at room temperature to solidify, then put into 5% CO2, 37° C. incubator.
9. On Day 13, add 0.5 mL of INT (tetrazolium 1 mg/mL in Milli-Q H2 O, filter sterilized) and return plates to incubator.

For the next experiment, the system named is H61 xenografts. Put plainly: In vivo activity, H61 xenografts in NCR-NU mice. Here is the method: Female NCR-NU mice were randomized and then inoculated with trocar fragments of H61 xenografts obtained from donor animals on Day 0 of the experiment. H61 cells are NIH3T3 cells that have been transfected and transformed with mutant human H-ras. The animals were then re-randomized to treatment groups. Tumor-bearing mice were then treated via subcutaneous (SC) or interperitoneal (IP) injections of Example 1 every 12 hours at various dose levels for 14 days beginning on Day 1. Tumors were measured with calipers in two orthogonal dimensions several times per week for the duration of the experiment. Tumor burdens in milligrams were estimated from the caliper measurements by standard methods (mg=axb^2 /2, where a and b are the measurements of the major and minor axes of the tumor, respectively.) Inhibition of tumor growth was assessed at the last day of treatment (14). […] In mice given Example 1 IP at either 37 or 23 mg/kg/injection, no tumors were evident at the sites of inoculation, indicating complete (100%) inhibition of tumor growth.

Experiment [5] deals with mammary and salivary carcinomas. As to conditions: daily administration; cited from earlier work.
The test system of experiment [6] is human lung carcinoma with K-ras mutation and p53 deletion. As to conditions: nude mice; cited from earlier work.
The mark [7] stands for this setting: SC 96 mg/kg/injection every 12 hours for 14 days, last day of treatment (14).

Where two headings read alike, the source gives them in different places.

As to `COC(=O)[C@H](CCSC)NC(=O)[C@H](/C=C\[C@@H](/C=C/[C@@H](N)CS)C(C)C)Cc1ccccc1` [Example B1086], the “tumor growth (in words)” value in experiment [1] is given as “inhibit tumor growth”.

With `O=C(CN(Cc1ccc(OCc2ccccc2)cc1)C(=O)[C@H](Cc1c[nH]cn1)NC(=O)OCc1ccccc1)NCC1(c2ccccc2)CCC1` [Example 1, (S)-[1-((4-Benzyloxy-benzyl)-{[1-(phenyl-cyclobutylmethyl)-carbamoyl]-methyl}-carbamoyl)-2-(1H-imidazol-4-yl)-ethyl]-carbamic Acid benzyl ester], the IC50 came out at 0.006 µM in experiment [2] (HEPES buffer pH 7.4 with 5 mM potassium phosphate, read-out: PFT Inhibitory Activity IC50 (μM) HEPES and 5 mM K3 PO4); 0.075 µM in experiment [2] (HEPES buffer pH 7.4 without 5 mM potassium phosphate, read-out: PFT Inhibitory Activity IC50 (μM) HEPES); 47 nM in experiment [4]. Also, the “Gel Shift (μM) M.E.D. (minimal effective dose to observe inhibition of ras farnesylation)” value in experiment [3] is 0.02 µM. Further, the “inhibition of tumor growth” value stood at 100% in the experiment on H61 xenografts (IP 23 mg/kg/injection every 12 hours for 14 days, no tumors evident at sites of inoculation); 100% in the experiment on H61 xenografts (IP 37 mg/kg/injection every 12 hours for 14 days, no tumors evident at sites of inoculation); 73% in the experiment on H61 xenografts (setting [7]). Also, the “median tumor burden of the treated group” value with H61 xenografts (setting [7]) amounted to 672 mg. Further, the “inhibition of tumor growth (in words)” value in the experiment with H61 xenografts (SC or IP every 12 hours for 14 days) is on record as “significantly inhibited tumor growth”.

In the case of `CC[C@H](C)[C@@H](CO[C@@H](Cc1ccccc1)C(=O)N[C@@H](CCS(C)(=O)=O)C(=O)OC(C)C)NC[C@@H](N)CS` [L-744,832], in experiment [5], the “tumor regression (in words)” value is reported as “caused tumor regression”.

`CSCC[C@H](NC(=O)c1ccc(NC[C@@H](N)CS)cc1-c1ccccc1)C(=O)O` [FTI276]: the “tumor growth (in words)” value in experiment [6] was “selectively block tumor growth”.

Source of the values: patent publication US6281194A, “Cycloalkyl inhibitors of protein farnesyltransferase” (Warner-Lambert Company, priority 1999, dated 2001).
